Legend:
[1] = molecular target: T1, human wild type TauT (TauT^WT) (Homo sapiens, UniProt P31641); assay: [3H]taurine uptake inhibition assay in HEK293T cells overexpressing TauT^WT; assay type: cell-based; conditions: for inhibition of the uptake activity of TauT: result in words
T1 sequence (P31641 1-620): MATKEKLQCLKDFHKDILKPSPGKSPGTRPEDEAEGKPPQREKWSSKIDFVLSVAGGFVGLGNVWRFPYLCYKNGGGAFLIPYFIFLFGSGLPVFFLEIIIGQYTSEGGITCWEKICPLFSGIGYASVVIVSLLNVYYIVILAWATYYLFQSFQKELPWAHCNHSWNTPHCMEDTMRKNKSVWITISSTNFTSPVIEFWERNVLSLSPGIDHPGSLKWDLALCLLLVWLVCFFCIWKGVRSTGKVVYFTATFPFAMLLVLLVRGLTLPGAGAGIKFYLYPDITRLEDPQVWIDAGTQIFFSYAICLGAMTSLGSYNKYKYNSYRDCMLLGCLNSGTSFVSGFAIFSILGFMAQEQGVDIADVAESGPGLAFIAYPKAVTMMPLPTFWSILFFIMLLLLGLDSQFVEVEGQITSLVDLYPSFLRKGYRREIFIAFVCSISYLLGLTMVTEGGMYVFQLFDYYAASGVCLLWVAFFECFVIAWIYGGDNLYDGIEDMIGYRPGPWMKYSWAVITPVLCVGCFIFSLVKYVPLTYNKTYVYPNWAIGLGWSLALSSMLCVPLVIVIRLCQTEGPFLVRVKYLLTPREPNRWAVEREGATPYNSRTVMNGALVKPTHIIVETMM

hGAT1 = conditions: previous studies; cited from earlier work

| SMILES | inhibition of the uptake activity of TauT [1] | IC50 [1] | IC50 for hGAT1 compared with hTauT (hGAT1) |
| --- | --- | --- | --- |
| O=C(O)Cc1c[nH]cn1 [I4AA, imidazole-4-acetic acid] | concentration-dependently inhibited | – | – |
| NCCCS(=O)(=O)O [Htau, homotaurine] | concentration-dependently inhibited | 770 ± 160 µM | – |
| O=C(O)C1CCCNC1 (stereo not shown) [nipecotic acid] | concentration-dependently inhibited | – | lower IC50 value for hGAT1 than for hTauT |
| O=S(=O)(O)C1CCNCC1 [P4S, piperidine-4-sulfonic acid] | concentration-dependently inhibited | – | – |
| NCCCCC(=O)O [5AVA, 5-aminovaleric acid] | concentration-dependently inhibited | – | – |

From article PMC12339982 (Nature Communications, 2025)
